The results in this text go back to patent US8188148B2, “Substituted 1,3-diphenylpropane derivatives, preparations and uses thereof” (Genfit, priority 2006, dated 2012).

One experiment has as its system C57BI6 mouse. The experiment in a line: In vivo evaluation on C57BI6 mouse: body weight and plasma lipids. The following applies: C57BI6 mouse, 3, 10, and 30 mpk per os, 14 days, vs control. How it is done:
The effect of the compounds according to the invention is evaluated in vivo on the C57BI6 mouse by measuring the body weight evolution, the plasma HDL cholesterol and triglyceride levels, after 14 days of a per os treatment with the compounds according to the invention.
Female C57BI6 mice were kept on a 12 hour/12 hour light/dark cycle at a constant temperature of 20±3° C. After a one week acclimatization period, the mice were weighed and divided into groups of 6 animals selected such as the distribution of body weight and of plasma lipid rate, determined before the experiment, was uniform. The tested compounds were suspended in carboxymethylcellulose (Sigma C4888) and administered to the animals by gastric gavage, once a day for 14 days at the chosen doses. The animals had free access to food and water (standard diet). Taking of food and weight gain are recorded throughout the experiment. At the end of the experiment, after a 4 hour fast, the animals were anesthetized and a blood sample was taken on anticoagulant (EDTA). Then the mice were weighed and euthanized. The plasma was separated by centrifugation at 3000 rotations/minute for 20 minutes. The samples were kept at +4° C. Hepatic tissue samples were removed, frozen in liquid nitrogen, and then kept at −80° C. for later analyses.
Low-density lipoproteins (VLDL and LDL) are precipitated by Phosphotungstate. The precipitate is eliminated by centrifugation. HDL-cholesterol present in the supernatant is measured by enzymatic assays (bioMérieux-Lyon-France) in accordance with the provider's recommendations.
Plasma triglyceride concentrations were measured by enzymatic assays (bioMérieux-Lyon-France) according to the provider's recommendations.

The next experiment has as its system ApoE2/E2 mouse. Kind of experiment: In vivo evaluation on ApoE2/E2 mouse: body weight and plasma lipids. As to conditions: E2/E2 mouse, 5, 10, and 50 mpk per os, 8 days, vs control. How it is done: The dyslipidemic E2/E2 mouse's body weight, rates of total cholesterol, triglycerides and of plasma free fatty acids are measured after 8 days of a per os treatment with the compounds according to the invention.
The murine model used is the ApoE2/E2 mouse, a transgenic mouse having the human apolipoprotein E isoform E2 (Sullivan P M et al., 1998). In human, this apolipoprotein, a constituent of low and very low density lipoproteins (LDL-VLDL), is present in three isoforms E2, E3, and E4. The E2 form presents a mutation affecting the amino acid of position 158, which considerably weakens the affinity of this protein for the receptors to LDL receptors. Accordingly, the VLDL clearance is nearly non-existent. An accumulation of low-density lipoproteins then occurs along with a mixed hyperlipidemia known as of type III (high cholesterol and triglycerides rates).
The ApoE2/E2 transgenic mice were kept on a 12 hour/12 hour light/dark cycle at a constant temperature of 20±3° C. After a one week acclimatization period, the mice were weighed and divided into groups of 6 animals selected so as to render uniform the distribution of their body weights and plasma lipid rates, determined before the experiment. The tested compounds were suspended in carboxymethylcellulose (Sigma C4888) and administered by intra-gastric tube feeding, once a day for 8 days at the chosen dosage. The animals had free access to food and water (standard diet). Taking of food and weight gain are recorded throughout the experiment. At the end of the experiment, the animals were anesthetized after a 4 hour fast, a blood sample was taken using (EDTA) anticoagulant, then the mice were weighed and euthanized. The plasma was prepared by centrifugation at 3000 rotations/minute for 20 minutes. The samples were kept at +4° C.
Plasma lipid concentrations (total cholesterol and triglycerides) are measured by enzymatic dosages (bioMérieux-Lyon-France) according to the provider's recommendations.
Plasma cholesterol and triglycerides rates are measured after 8 days of a per os treatment with the compounds according to the invention. These rates are compared with those obtained with control animals (not treated with compounds according to the invention).
Low-density lipoproteins (VLDL and LDL) are precipitated by Phosphotungstate. The precipitate is eliminated by centrifugation. HDL cholesterol present in the supernatant is measured by enzymatic dosages (bioMérieux-Lyon-France) in accordance with the provider's recommendations.

Another experiment has as its system db/db mouse. The experiment in a line: In vivo evaluation on db/db mouse: body weight, glycemia, insulinemia, plasma lipids. As to conditions: 50 mpk per os, 28 days. How it is done: The effect of the compounds according to the invention is evaluated in vivo on the db/db mouse by measuring the body weight evolution, the glucose levels, the insulin levels, the plasma total cholesterol and triglyceride levels, and by analyzing the distribution of cholesterol in different plasma lipoprotein fractions, after 28 days of a per os treatment with compounds according to the invention.
Female db/db mice were kept on a 12 hour/12 hour light/dark cycle at a constant temperature of 20±3° C. After a one week acclimatization period, the mice were weighed and divided into groups of 8 animals selected so as to render uniform the distribution of their body weights and their plasma lipid rates, determined before the experiment. The tested compounds were suspended in carboxymethylcellulose (Sigma C4888) and administered intra-gastric tube feeding once a day for 28 days at the chosen dose. The animals had free access to food and water (standard diet). Taking of food and weight gain are recorded throughout the experiment. At the end of the experiment, the animals were anesthetized after a 4 hour fast, a blood sample was taken using (EDTA) anticoagulant, then the mice were weighed and euthanized. The plasma was separated by centrifugation at 3000 rotations/minute for 20 minutes. The samples were kept at +4° C. The hepatic tissue and skeletal muscle tissue samples were taken and frozen immediately in liquid nitrogen then conserved at −80° C. for later analysis.
Murine plasma glucose is measured out according to an enzyme-colorimetric method using a Glucose RTU kit (Biomérieux). Glucose is transformed into gluconic acid under the action of glucose oxidase; the reaction releases hydrogen peroxide. Hydrogen peroxide is measured according to the Trinder reaction which, under the action of a peroxidase and in the presence of phenol and amino-4-antipyrine, produces water and a colored product, quinoneimine. The color intensity, due to the quinoneimine, is proportional to the amount of glucose present in the sample.
Murine insulin is measured using ELISA method (using the INSKR020 kit from provider Crystal chem.). A microplate is coated with a mouse anti-insulin antibody. Then, the serum to be assayed for insulin is placed onto the plate. A guinea pig anti-insulin antibody is used to recognize the complex formed by the mouse insulin and the anti-insulin monoclonal antibody. Finally an anti-guinea pig antibody labeled with peroxidase is added and bind to the guinea pig anti-insulin antibody. The colorimetric reaction is performed by adding an OPD (ortho phenyl diamine) enzyme substrate. The intensity of the color is proportional to the amount of insulin present in the sample.
Plasma lipid concentrations (total cholesterol and triglycerides) are measured by enzymatic assays (bioMérieux-Lyon-France) according to the provider's recommendations.
The different lipid fractions (VLDL, LDL, HDL) in the plasma were separated using gel-filtration chromatography. Cholesterol concentrations were then measured for each fraction by enzymatic assays (bioMérieux-Lyon-France) according to the provider's recommendations.

SMILES strings stand for the structures.

Take `Cc1cc(CCC(=O)c2ccc(OC(F)(F)F)cc2)cc(C)c1OC(C)(C)C(=O)O` [Compound 1, 2-[2,6-dimethyl-4-[3-[4-(trifluoromethyloxy)phenyl]-3-oxo-propyl]phenoxy]-2-methyl-propanoic acid]: in the experiment on C57BI6 mouse, the body weight gain entry is recorded as “weight loss”, the “plasma HDL-cholesterol” value is listed as “very significantly increased” and the plasma triglycerides result was “very significantly diminished”. Also, in the experiment with ApoE2/E2 mouse, the body weight gain result was “weight loss”, the “plasma HDL-cholesterol” value was “significantly increased”, the “plasma free fatty acids” value is given as “decreased very significantly” and the plasma total cholesterol entry was “significantly reduced”. Moreover, the plasma triglycerides entry in the experiment on ApoE2/E2 mouse is listed as “decreased very significantly”. Moreover, in the experiment with db/db mouse, the “HDL-cholesterol fraction (distribution of cholesterol in plasma lipoprotein fractions)” value is on record as “significant increase”, the “glycemia (plasma glucose)” value is given as “significantly reduced” and the “insulinemia (plasma insulin)” value is “significantly reduced”. Also, in the experiment on db/db mouse (vs control), the body weight gain entry is listed as “weight loss”, the “plasma free fatty acids” value was “very significantly decreased”, the plasma triglycerides entry was “very significantly decreased” and the total plasma cholesterol result is given as “significantly increased”.
